Consider 18 molecules from patent publication US10752588B2 (The Broad Institute, Inc., priority 2014, dated 2020).

Test [1] concerns the target T1, human D2R/β-arrestin (Homo sapiens (Human), UniProt P14416). As to the kind of experiment: β-Arrestin agonist assay (PathHunter). In kind it is cell-based. As to conditions: CHO-K1 cell line expressing human D2R/β-arrestin. As for the experimental part: (§1) The assays can be performed using proper detection reagents either prepared using routine methods known in the art or commercially available (e.g., PathHunter® β-Arrestin Detecting Kit (DiscoveRX)). Cells are grown to the necessary confluence and then detached. The cells are then centrifuged, washed, resuspended, and seeded into a container (e.g., 384-well plate). The cells are incubated (e.g., at 37° C., 5% CO2) for the appropriate period of time (e.g., 24 hours), before various compounds (e.g., a compound of the invention or a control compound) are added to the cells. After incubation of the cells with the compounds, detection reagents (e.g., a buffer containing Emerald II: Galactor-Star as provided DiscoveRX) are added to the cells. The read-out (e.g., luminescence, or fluorescence) is detected using standard equipment.
The detection reagent (9.6 μL, Buffer:Emerald II:Galactor-Star in a 19:5:1 ratio, i.e., 14.06 mL:3.7 mL:0.74 mL=18.5 mL) was then added to the agonist plates.

Test [2] deals with T1, human D2R/β-arrestin. The test is described as follows: Gi/cAMP agonist assay (Lance Ultra cAMP, Forskolin). The class given is cell-based. As to conditions: CHO-K1 cell line expressing human D2R/β-arrestin. How it is done: as §1, with “PE Lance Ultra cAMP kit (TRF0263)).” for “PathHunter® β-Arrestin Detecting Kit (DiscoveRX)).”, “Afterwards, cAMP inducing agents (e.g., Forskolin) are added to and incubated with” for “After incubation of”, “before” for “with the compounds,”, “cAMP antibody, such” for “buffer containing Emerald II: Galactor-Star”, “ULight-anti-cAMP solution)” for “provided DiscoveRX)”, “Read-out” for “The read-out”
Compounds were pin-transferred (100 nL) to the cells, and incubated for 10 min. at 37° C. […] Eu-cAMP tracer solution (100, PerkinElmer, […] in 17.64 ml kit buffer) and ULight-anti-cAMP solution (100, 120 μL antibody in 17.88 ml kit buffer) was then added to each well.

Test [3] has as its target T1, human D2R/β-arrestin. The test is described as follows: cell-based. The note with it: β-arrestin Antagonist, CHO-K1 cell line expressing human D2R/β-arrestin; quinpirole used as agonist.
Test [4] deals with T1, human D2R/β-arrestin. The test is described as follows: cell-based. As to conditions: cAMP Antagonist, CHO-K1 cell line expressing human D2R/β-arrestin; quinpirole used as agonist.
Method: The detection reagents are then added, and the read-out is detected.
Cells were prepared for assays by growing cultures for up to 2 weeks (from about 6-20 passages). A vial of frozen cells was thawed in a water bath held at 37° C. The cells were then transferred into a 50 ml tube with 10 ml growth media. The vial was rinsed with growth media and the contents transferred to the 50 ml tube. The 50 ml tube was centrifuged at 1200 rpm for 5 minutes at room temperature. […] When the cells reached about 90% confluence (approximately 3 days between passages), the cells were passaged and used for either the agonist or antagonist assays as described below.
The cells were prepared for Gi/cAMP assays as described above. The assays were performed using a PE Lance Ultra cAMP kit (TRF0263). The cells were grown on 225 mm dishes, then washed once with 1×PBS (Cellgro) before digestion with 2.5 ml 1× Detachment reagent (DRX 92-0009) for about 2 minutes. PBS (20 ml) was then added to the plate, and the cells were transferred to a 50 ml centrifuge tube, and centrifuged at room temperature using BD Dynac III, at 1200 rpm for 5 minutes. […] The plates were then incubated at room temperature for about 30 minutes before addition of Eu-cAMP tracer solution (100, PerkinElmer) and then ULight-anti-cAMP solution (100) to each well.

The structures appear in SMILES notation.

T1 sequence (P14416 whole entry): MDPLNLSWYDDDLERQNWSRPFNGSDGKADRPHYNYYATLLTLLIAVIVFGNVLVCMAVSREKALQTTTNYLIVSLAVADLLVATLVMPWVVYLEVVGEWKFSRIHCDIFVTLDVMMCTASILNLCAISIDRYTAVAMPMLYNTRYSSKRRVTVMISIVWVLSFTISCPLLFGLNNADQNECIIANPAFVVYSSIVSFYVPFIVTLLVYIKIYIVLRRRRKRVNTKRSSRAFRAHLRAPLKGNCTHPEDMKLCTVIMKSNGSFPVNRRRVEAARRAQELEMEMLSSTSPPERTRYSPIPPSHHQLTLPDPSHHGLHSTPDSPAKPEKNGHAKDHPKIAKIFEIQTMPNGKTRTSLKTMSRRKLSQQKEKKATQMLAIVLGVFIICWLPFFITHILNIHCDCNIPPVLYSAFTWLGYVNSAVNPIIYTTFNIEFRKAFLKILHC

One may read the EC50 as the concentration at which the effect is half-maximal. A word on the IC50: it is the point on the concentration scale where inhibition reaches its midpoint. Low values mean higher potency, high ones lower potency. On to `O=C(NC(c1ccc(Cl)cc1)c1ccccn1)C1CCN(CCOc2cccc(Cl)c2)CC1` (single isomer, unassigned) [Compound 1a, 1-(2-(3-chlorophenoxy)ethyl)-N-((4-chlorophenyl)(pyridin-2-yl)methyl)piperidine-4-carboxamide], for which the EC50 on human D2R/β-arrestin [1] and at human D2R/β-arrestin [2] was above 30000 nM throughout. Besides, the IC50 lay within 1000 to 10000 nM at human D2R/β-arrestin [3] and 100 to 1000 nM at human D2R/β-arrestin [4].
`O=C(NC(c1ccc(Cl)cc1)c1ccccn1)C1CCN(CCOc2ccccc2)CC1` (single isomer, unassigned) [Compound 63a, N-((4-chlorophenyl)(pyridin-2-yl)methyl)-1-(2-phenoxyethyl)piperidine-4-carboxamide]: the values for the EC50 on human D2R/β-arrestin [1] and at human D2R/β-arrestin [2] were above 30000 nM and 100 to 1000 nM, respectively. The IC50 at human D2R/β-arrestin [3] was 1000 to 10000 nM; at human D2R/β-arrestin [4], above 30000 nM.
In the case of `O=C(NC(c1ccc(Cl)cc1)c1ccccn1)C1CCN(CCOc2ccccc2)CC1` (single isomer, unassigned) [Compound 63b, N-((4-chlorophenyl)(pyridin-2-yl)methyl)-1-(2-phenoxyethyl)piperidine-4-carboxamide], the EC50 at human D2R/β-arrestin [1] and on human D2R/β-arrestin [2] was above 30000 nM in each case. The IC50 at human D2R/β-arrestin [3] and at human D2R/β-arrestin [4] was 100 to 1000 nM in each case.
`CC1(C(=O)NC(c2ccc(F)cc2)c2ccccn2)CCN(CCOc2ccccc2)CC1` (single isomer, unassigned) [Compound 69a, N-((4-fluorophenyl)(pyridin-2-yl)methyl)-4-methyl-1-(2-phenoxyethyl)piperidine-4-carboxamide]: the EC50 at human D2R/β-arrestin [1] and at human D2R/β-arrestin [2] was 100 to 1000 nM throughout. Besides, the values for the IC50 on human D2R/β-arrestin [3] and on human D2R/β-arrestin [4] were 1000 to 10000 nM and above 30000 nM, respectively.
For `CN(CC1CCN(CCOc2ccccc2F)CC1)C(c1ccc(Cl)cc1)c1ccccn1` (single isomer, unassigned) [Compound 72b, 1-(4-chlorophenyl)-N-((1-(2-(2-fluorophenoxy)ethyl)piperidin-4-yl)methyl)-N-methyl-1-(pyridin-2-yl)methanamine], the EC50 at human D2R/β-arrestin [1] and on human D2R/β-arrestin [2] was above 30000 nM each time. Also, the IC50 on human D2R/β-arrestin [3] and on human D2R/β-arrestin [4] was below 100 nM in each case.
On to `CN(CC1CCN(CCOc2ccccc2)CC1)C(c1ccc(F)cc1)c1ccccn1` (single isomer, unassigned) [Compound 74a, 1-(4-fluorophenyl)-N-methyl-N-((1-(2-phenoxyethyl)piperidin-4-yl)methyl)-1-(pyridin-2-yl)methanamine], for which the EC50 on human D2R/β-arrestin [1] was above 30000 nM; at human D2R/β-arrestin [2] it was 1000 to 10000 nM. The IC50 was 1000 to 10000 nM on human D2R/β-arrestin [3] and above 30000 nM at human D2R/β-arrestin [4].
With `CN(CC1CCN(CCOc2ccccc2)CC1)C(c1ccc(F)cc1)c1ccccn1` (single isomer, unassigned) [Compound 74b, 1-(4-fluorophenyl)-N-methyl-N-((1-(2-phenoxyethyl)piperidin-4-yl)methyl)-1-(pyridin-2-yl)methanamine], the EC50 was above 30000 nM at human D2R/β-arrestin [1] and 100 to 1000 nM at human D2R/β-arrestin [2]. In addition, the IC50 at human D2R/β-arrestin [3] and at human D2R/β-arrestin [4] was 100 to 1000 nM each time.
As for `COc1cccc(C(c2ccccn2)N(C)CC2CCN(CCOc3ccccc3)CC2)c1` (single isomer, unassigned) [Compound 76a, 1-(3-methoxyphenyl)-N-methyl-N-((1-(2-phenoxyethyl)piperidin-4-yl)methyl)-1-(pyridin-2-yl)methanamine], the EC50 is above 30000 nM at human D2R/β-arrestin [1] and 100 to 1000 nM at human D2R/β-arrestin [2]. Moreover, the figures for the IC50 on human D2R/β-arrestin [3] and on human D2R/β-arrestin [4] were 1000 to 10000 nM and 100 to 1000 nM, respectively.
Take `Fc1ccc(C(NCC2CCN(CCOc3ccccc3)CC2)c2ccccn2)cc1` (single isomer, unassigned) [Compound 78a, 1-(4-fluorophenyl)-N-((1-(2-phenoxyethyl)piperidin-4-yl)methyl)-1-(pyridin-2-yl)methanamine]: the results for the EC50 on human D2R/β-arrestin [1] and at human D2R/β-arrestin [2] were above 30000 nM and 100 to 1000 nM, respectively. The IC50 on human D2R/β-arrestin [3] and at human D2R/β-arrestin [4] was 1000 to 10000 nM in each case.
For the molecule `CN(CC1CCN(CCOc2ccccc2)CC1)C(c1ccc(Cl)cc1)c1ccccn1` (single isomer, unassigned) [Compound 79a, 1-(4-chlorophenyl)-N-methyl-N-((1-(2-phenoxyethyl)piperidin-4-yl)methyl)-1-(pyridin-2-yl)methanamine], the EC50 on human D2R/β-arrestin [1] and on human D2R/β-arrestin [2] was above 30000 nM in each case. Also, the IC50 at human D2R/β-arrestin [3] and at human D2R/β-arrestin [4] was 1000 to 10000 nM each time.
Take `Fc1ccccc1C(NCC1CCN(CCOc2ccccc2)CC1)c1ccc(Cl)cc1` (single isomer, unassigned) [Compound 81a, 1-(4-chlorophenyl)-1-(2-fluorophenyl)-N-((1-(2-phenoxyethyl)piperidin-4-yl)methyl)methanamine]: the EC50 on human D2R/β-arrestin [1] and at human D2R/β-arrestin [2] was above 30000 nM throughout. Besides, the IC50 at human D2R/β-arrestin [3] and at human D2R/β-arrestin [4] was 100 to 1000 nM each time.
In the case of `Fc1ccc(F)c(OCCN2CCC(CNC(c3ccc(Cl)cc3)c3ccccn3)CC2)c1` (single isomer, unassigned) [Compound 89a, 1-(4-chlorophenyl)-N-((1-(2-(2,5-difluorophenoxy)ethyl)piperidin-4-yl)methyl)-1-(pyridin-2-yl)methanamine], the EC50 on human D2R/β-arrestin [1] and on human D2R/β-arrestin [2] was above 30000 nM in each case. In addition, the IC50 at human D2R/β-arrestin [3] and at human D2R/β-arrestin [4] was 100 to 1000 nM in each case.
In the case of `Fc1ccc(F)c(OCCN2CCC(CNC(c3ccc(Cl)cc3)c3ccccn3)CC2)c1` (single isomer, unassigned) [Compound 89b, 1-(4-chlorophenyl)-N-((1-(2-(2,5-difluorophenoxy)ethyl)piperidin-4-yl)methyl)-1-(pyridin-2-yl)methanamine], the values for the EC50 on human D2R/β-arrestin [1] and on human D2R/β-arrestin [2] were above 30000 nM and 100 to 1000 nM, respectively. Besides, the values for the IC50 at human D2R/β-arrestin [3] and on human D2R/β-arrestin [4] were 1000 to 10000 nM and 10000 to 30000 nM, respectively.
In the case of `O=C(NC(c1ccc(Cl)cc1)c1ccncc1F)C1CCN(CCOc2ccccc2F)CC1` (single isomer, unassigned) [Compound 91a, N-((4-chlorophenyl)(3-fluoropyridin-4-yl)methyl)-1-(2-(2-fluorophenoxy)ethyl)piperidine-4-carboxamide], the values for the EC50 at human D2R/β-arrestin [1] and at human D2R/β-arrestin [2] were above 30000 nM and 100 to 1000 nM, respectively. In addition, the IC50 at human D2R/β-arrestin [3] was 1000 to 10000 nM; at human D2R/β-arrestin [4], above 30000 nM.
Turning to `O=C(NC(c1ccc(Cl)cc1)c1ccc(F)cn1)C1CCN(CCOc2ccccc2F)CC1` (single isomer, unassigned) [Compound 92a, N-((4-chlorophenyl)(5-fluoropyridin-2-yl)methyl)-1-(2-(2-fluorophenoxy)ethyl)piperidine-4-carboxamide], the EC50 on human D2R/β-arrestin [1] is above 30000 nM; on human D2R/β-arrestin [2] it was 100 to 1000 nM. Further, the IC50 on human D2R/β-arrestin [3] and on human D2R/β-arrestin [4] was 100 to 1000 nM each time.
Consider `O=C(NC(c1ccc(Cl)cc1)c1ccc(F)cn1)C1CCN(CCOc2ccccc2F)CC1` (single isomer, unassigned) [Compound 92b, N-((4-chlorophenyl)(5-fluoropyridin-2-yl)methyl)-1-(2-(2-fluorophenoxy)ethyl)piperidine-4-carboxamide], for which the EC50 was above 30000 nM on human D2R/β-arrestin [1] and 10000 to 30000 nM on human D2R/β-arrestin [2]. The IC50 at human D2R/β-arrestin [3] and at human D2R/β-arrestin [4] was 1000 to 10000 nM throughout.
For the molecule `O=C(NC(c1cccc(OC(F)(F)F)c1)c1ccccn1)C1CCN(CCOc2ccccc2F)CC1` (single isomer, unassigned) [Compound 93a, 1-(2-(2-fluorophenoxy)ethyl)-N-(pyridin-2-yl(3-(trifluoromethoxy)phenyl)methyl)piperidine-4-carboxamide], the EC50 on human D2R/β-arrestin [1] was above 30000 nM; at human D2R/β-arrestin [2], 10000 to 30000 nM. Further, the concentration for half-maximal inhibition (IC50) at human D2R/β-arrestin [3] was 1000 to 10000 nM; at human D2R/β-arrestin [4], 100 to 1000 nM.
For `CC(C1CCN(CCOc2ccccc2)CC1)N(C)C(c1ccc(Cl)cc1)c1ccccn1` (single isomer, unassigned) [Compound 97a, N-((4-chlorophenyl)(pyridin-2-yl)methyl)-N-methyl-1-(1-(2-phenoxyethyl)piperidin-4-yl)ethan-1-amine] the same measures were above 30000 nM, 100 to 1000 nM, 1000 to 10000 nM and 100 to 1000 nM.
